Measurements published in patent US10212956B2, “Compositions and methods of treating edible matter and substrates therefor” (PIMI AGRO CLEANTECH LTD., priority 2010, dated 2019).

Tests used:
mandarin oranges = test: Citrus decay during storage at 2° C.; format: in vivo; conditions: Mandarin Orange
Method: Approximately 1000 mandarin oranges were treated shortly after harvest with compositions comprising performic acid, water, or an Imazalil composition, and then stored at 2° C. After 22 days, the number of rotten fruits, and the percent decay were assessed. A second trial was conducted with ten tons of mandarin oranges treated with a performic acid composition or Imazalil and stored and then stored at 2° C. The study was repeated with Red Grapefruit. The compositions comprising performic acid and the manner of applying the compositions varied throughout the course of the study within the parameters summarized in Table 6.
The compositions were applied to the citrus at room temperature with a fine spray of the performic acid containing composition and then treated either a) with a drain wash of water (either cold or heated to 55° C.) with a 1:9 dilution in tap water of the composition without formic acid, orb) with a drain wash of water (either cold or heated to 55° C.), followed by a fine spray at room temperature with a formulation identical to the performic acid formulation but without formic acid. Thus, the methods of applying in this study were: • a. Application of the performic acid containing composition at room temperature with fine spray, then treatment with a drain wash of cold water, and then a fine spray at room temperature with a formula without formic acid (i.e. without the performic acid source) • b. Application of the performic acid containing composition at room temperature with fine spray, then treatment with a drain wash of heated water (to about 55° C.), and then a fine spray at room temperature with a formula without formic acid • c. Application of the performic acid containing composition at room temperature with fine spray and then treatment with a drain wash of cold water that contained the formula at a diluted state at a ratio of 1:9 but without formic acid • d. Application of the performic acid containing composition at room temperature with fine spray and then treatment with a drain wash of heated water (to about 55° C.) that contained the formula at a diluted state at a ratio of 1:9 but without formic acid
All treatments were conducted at a total rate of 5-20 liter of formula per ton of different Citrus varieties.

[1] = test system: Aspergillus niger (ATCC 16404); test: BS EN 1650:1998 quantitative suspension test, fungicidal activity; format: cell-based; conditions: 300 ppm; same test conditions (1 minute, 20° C., dirty conditions)
Method: (§1) This is a quantitative suspension test to evaluate the activity of chemical disinfectants and antiseptics used in food, industrial, domestic and institutional areas against fungi, yeasts and molds. The same composition tested in Example 22 was tested in this case as well.
(§2) As is known in the art, EN 1650 specifies a test method and the minimum requirements for anti-fungal, anti-yeast and anti-mold activity of chemical disinfectant and antiseptic products that form a homogeneous, physically stable preparation in hard water and that are used in food, industrial, domestic and institutional areas, excluding areas and situations where disinfection is medically indicated and excluding products used on living tissues except those for hand hygiene in the above-considered areas. […]
(§3) A test suspension of yeast cells and/or mold spores in a solution of interfering substance (bovine albumin, 3 g/l) was added to a prepared sample of the product under test diluted in hard water. […] (If a suitable neutralizer could be found, membrane filtration was used.) The number of surviving fungi, yeast cells or mold spores in each sample was determined and the reduction in viable counts was calculated. […]

[2] = test system: Penecillium w.t. (wild type); test: as above; format: cell-based; conditions: 300 ppm; same test conditions (1 minute, 20° C., dirty conditions)
Method: as §1, §2, §3

SMILES | % Decay (mandarin oranges; 22 days after treatment) | No. Rotten Fruits (mandarin oranges; 22 days after treatment) | % Decay (mandarin oranges; 46 days after treatment) | No. Rotten Fruits (mandarin oranges; 46 days after treatment) | compliance with EN 1650 [1] | compliance with EN 1650 [2]
C=CCOC(Cn1ccnc1)c1ccc(Cl)cc1Cl (stereo not drawn) [Imazalil] | 6.8% | 59 | 1.75% | 125 | – | –
CC(=O)OO [peracetic acid] | – | – | – | – | did not meet the standard | did not meet the standard
